The values below come from PMC6008489 (Bioorganic & Medicinal Chemistry, 2018).

Type in all cases: biochemical
One experiment concerns the target T1, MPS1 (Homo sapiens, UniProt P33981).
T1 sequence (P33981 1-857): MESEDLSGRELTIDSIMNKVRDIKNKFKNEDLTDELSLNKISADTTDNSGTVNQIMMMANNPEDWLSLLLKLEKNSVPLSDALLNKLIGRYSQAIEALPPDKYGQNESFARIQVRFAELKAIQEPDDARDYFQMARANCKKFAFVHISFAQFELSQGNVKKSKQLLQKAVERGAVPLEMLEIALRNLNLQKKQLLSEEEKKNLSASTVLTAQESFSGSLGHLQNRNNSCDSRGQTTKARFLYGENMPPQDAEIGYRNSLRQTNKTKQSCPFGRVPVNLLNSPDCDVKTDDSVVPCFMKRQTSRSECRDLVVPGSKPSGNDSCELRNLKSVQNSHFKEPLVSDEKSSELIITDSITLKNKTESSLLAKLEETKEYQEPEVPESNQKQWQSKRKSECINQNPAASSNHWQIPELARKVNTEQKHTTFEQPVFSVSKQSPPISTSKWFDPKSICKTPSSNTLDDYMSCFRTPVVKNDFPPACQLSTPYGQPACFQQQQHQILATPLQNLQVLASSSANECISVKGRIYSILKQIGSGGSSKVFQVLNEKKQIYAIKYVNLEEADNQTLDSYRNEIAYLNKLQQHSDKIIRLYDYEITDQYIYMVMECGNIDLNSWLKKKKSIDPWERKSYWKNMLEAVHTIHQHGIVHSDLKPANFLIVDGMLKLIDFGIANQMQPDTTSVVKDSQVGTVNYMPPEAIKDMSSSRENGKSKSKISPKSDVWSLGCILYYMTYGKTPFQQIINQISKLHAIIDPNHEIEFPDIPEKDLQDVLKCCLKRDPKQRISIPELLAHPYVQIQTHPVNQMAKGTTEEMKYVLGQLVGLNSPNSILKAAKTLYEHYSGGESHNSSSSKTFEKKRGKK
Particulars: for Ki: calculated from mean IC50 using the Cheng-Prusoff equation; for MPS1 ligand efficiency (LE): from Ki.

The target in a further experiment is T2, Aurora A (Homo sapiens, UniProt O14965).
T2 sequence (O14965 1-403): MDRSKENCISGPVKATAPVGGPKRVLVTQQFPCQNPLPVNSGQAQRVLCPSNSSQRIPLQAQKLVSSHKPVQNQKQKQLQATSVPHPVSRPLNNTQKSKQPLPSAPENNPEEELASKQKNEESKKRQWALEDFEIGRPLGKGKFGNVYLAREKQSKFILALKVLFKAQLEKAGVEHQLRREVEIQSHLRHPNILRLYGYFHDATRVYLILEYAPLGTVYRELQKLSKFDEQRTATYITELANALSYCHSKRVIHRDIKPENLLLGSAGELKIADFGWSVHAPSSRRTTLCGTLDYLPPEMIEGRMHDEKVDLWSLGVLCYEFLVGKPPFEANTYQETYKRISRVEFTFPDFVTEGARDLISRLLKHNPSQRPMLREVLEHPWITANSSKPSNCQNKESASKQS
The settings on record: for Ki: calculated from mean IC50 using the Cheng-Prusoff equation, read-out: AurA Ki; for AurA ligand efficiency (LE): from Ki.

A further experiment deals with Aurora B (Homo sapiens, UniProt Q96GD4). The settings on record: for Ki: calculated from mean IC50 using the Cheng-Prusoff equation, read-out: AurB Ki; for AurB ligand efficiency (LE): from Ki.
Aurora B, sequence (Q96GD4 whole entry): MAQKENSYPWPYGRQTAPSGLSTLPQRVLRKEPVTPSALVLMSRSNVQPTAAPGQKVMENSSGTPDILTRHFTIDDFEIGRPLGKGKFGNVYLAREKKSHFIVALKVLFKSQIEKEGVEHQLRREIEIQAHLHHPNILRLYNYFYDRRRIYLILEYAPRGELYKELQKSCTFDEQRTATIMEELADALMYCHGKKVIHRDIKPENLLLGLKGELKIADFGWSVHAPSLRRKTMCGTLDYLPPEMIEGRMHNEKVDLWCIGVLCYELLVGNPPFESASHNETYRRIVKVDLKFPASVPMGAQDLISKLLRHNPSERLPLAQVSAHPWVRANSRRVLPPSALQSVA
In a further experiment the target is T3, AurA (Homo sapiens, UniProt O14965).
T3 construct: purchased Perkin Elmer (ProfilerPro assay kit 1)
T3 sequence (O14965 1-403): T2 sequence (O14965 1-403)
The experiment can be described thus: 26-kinase panel mobility shift assay, single concentration. Particulars: read-out: % Inhibition AurA.

In the next experiment the target is T4, RSK1 (Homo sapiens, UniProt Q15418).
T4 construct: purchased Perkin Elmer (ProfilerPro assay kit 1)
The experiment is described as above. The settings on record: read-out: % Inhibition RSK1.

The next experiment deals with T5, PKA (Homo sapiens, UniProt P17612).
T5 construct: purchased Perkin Elmer (ProfilerPro assay kit 1)
The experiment is described as above. The settings on record: read-out: % Inhibition PKA.

Another experiment addresses T6, MET (Homo sapiens, UniProt P08581).
T6 construct: purchased Perkin Elmer (ProfilerPro assay kit 1)
Described as above. Particulars: read-out: % Inhibition MET.

For a further experiment, the target named is T7, MAPKAPK2 (Homo sapiens, UniProt P49137).
T7 construct: purchased Perkin Elmer (ProfilerPro assay kit 1)
T7 sequence (P49137 whole entry): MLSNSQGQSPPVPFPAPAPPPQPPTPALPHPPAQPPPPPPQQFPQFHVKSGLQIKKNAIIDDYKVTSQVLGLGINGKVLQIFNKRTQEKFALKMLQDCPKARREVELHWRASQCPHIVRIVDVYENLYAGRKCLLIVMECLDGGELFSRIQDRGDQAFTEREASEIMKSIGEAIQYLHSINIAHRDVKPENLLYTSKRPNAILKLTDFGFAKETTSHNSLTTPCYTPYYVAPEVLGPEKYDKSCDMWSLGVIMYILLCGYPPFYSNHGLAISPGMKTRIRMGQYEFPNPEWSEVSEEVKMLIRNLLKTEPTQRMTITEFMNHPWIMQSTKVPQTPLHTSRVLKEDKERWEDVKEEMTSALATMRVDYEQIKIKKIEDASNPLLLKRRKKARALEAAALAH
The experiment is described as above. Particulars: read-out: % Inhibition MAPKAPK2.

A further experiment addresses T8, LYN (Homo sapiens, UniProt P07948).
T8 construct: purchased Perkin Elmer (ProfilerPro assay kit 1)
The description is as above. The settings on record: read-out: % Inhibition LYN.

Another experiment deals with T9, INSR (Homo sapiens, UniProt P06213).
T9 construct: purchased Perkin Elmer (ProfilerPro assay kit 1)
The description is as above. Particulars: read-out: % Inhibition INSR.

Another experiment deals with T10, GSK3b (Homo sapiens, UniProt P49841).
T10 construct: purchased Perkin Elmer (ProfilerPro assay kit 1)
T10 sequence (P49841 whole entry): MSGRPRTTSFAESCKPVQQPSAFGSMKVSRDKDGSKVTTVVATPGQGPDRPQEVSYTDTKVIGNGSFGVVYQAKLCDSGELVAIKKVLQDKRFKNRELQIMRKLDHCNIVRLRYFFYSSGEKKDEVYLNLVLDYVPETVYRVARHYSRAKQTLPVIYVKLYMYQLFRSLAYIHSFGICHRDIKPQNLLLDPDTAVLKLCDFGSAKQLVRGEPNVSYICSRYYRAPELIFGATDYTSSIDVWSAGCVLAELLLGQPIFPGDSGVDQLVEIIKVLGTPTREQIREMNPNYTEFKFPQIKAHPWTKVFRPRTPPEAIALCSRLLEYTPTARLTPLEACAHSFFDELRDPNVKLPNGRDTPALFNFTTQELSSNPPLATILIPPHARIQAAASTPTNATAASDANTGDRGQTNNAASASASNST
The description is as above. Particulars: read-out: % Inhibition GSK3.

In a further experiment the target is T11, FYN (Homo sapiens, UniProt P06241).
T11 construct: purchased Perkin Elmer (ProfilerPro assay kit 1)
T11 sequence (P06241 whole entry): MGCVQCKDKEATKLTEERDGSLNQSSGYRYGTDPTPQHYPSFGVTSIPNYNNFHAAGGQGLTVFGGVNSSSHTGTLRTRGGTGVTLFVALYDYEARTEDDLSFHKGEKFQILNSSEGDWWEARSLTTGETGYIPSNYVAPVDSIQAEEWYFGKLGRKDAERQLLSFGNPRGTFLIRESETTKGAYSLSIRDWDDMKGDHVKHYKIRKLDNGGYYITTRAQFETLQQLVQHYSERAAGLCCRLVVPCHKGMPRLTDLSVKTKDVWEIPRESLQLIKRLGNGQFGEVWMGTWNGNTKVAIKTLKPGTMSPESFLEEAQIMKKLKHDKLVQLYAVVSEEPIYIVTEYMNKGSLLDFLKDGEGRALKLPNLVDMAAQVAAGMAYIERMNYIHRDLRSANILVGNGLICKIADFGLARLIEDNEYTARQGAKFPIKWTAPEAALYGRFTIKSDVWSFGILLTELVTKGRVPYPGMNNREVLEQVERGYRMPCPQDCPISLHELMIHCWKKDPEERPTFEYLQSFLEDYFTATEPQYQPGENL
Described as above. Particulars: read-out: % Inhibition FYN.

The target in another experiment is T12, Erk2 (Homo sapiens, UniProt P28482).
T12 construct: purchased Perkin Elmer (ProfilerPro assay kit 1)
T12 sequence (P28482 whole entry): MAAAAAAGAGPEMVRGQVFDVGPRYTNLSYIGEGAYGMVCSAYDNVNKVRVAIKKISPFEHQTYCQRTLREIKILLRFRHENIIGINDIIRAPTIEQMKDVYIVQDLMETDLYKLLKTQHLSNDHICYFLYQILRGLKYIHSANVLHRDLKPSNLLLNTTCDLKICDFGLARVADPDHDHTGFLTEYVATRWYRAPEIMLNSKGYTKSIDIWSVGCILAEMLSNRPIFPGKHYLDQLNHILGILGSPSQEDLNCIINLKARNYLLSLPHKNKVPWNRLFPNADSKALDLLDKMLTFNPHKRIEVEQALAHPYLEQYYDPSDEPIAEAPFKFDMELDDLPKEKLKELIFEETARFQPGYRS
Described as above. The settings on record: read-out: % Inhibition Erk2.

The target in a further experiment is T13, CK1d (Homo sapiens, UniProt P48730).
T13 construct: purchased Perkin Elmer (ProfilerPro assay kit 1)
T13 sequence (P48730 whole entry): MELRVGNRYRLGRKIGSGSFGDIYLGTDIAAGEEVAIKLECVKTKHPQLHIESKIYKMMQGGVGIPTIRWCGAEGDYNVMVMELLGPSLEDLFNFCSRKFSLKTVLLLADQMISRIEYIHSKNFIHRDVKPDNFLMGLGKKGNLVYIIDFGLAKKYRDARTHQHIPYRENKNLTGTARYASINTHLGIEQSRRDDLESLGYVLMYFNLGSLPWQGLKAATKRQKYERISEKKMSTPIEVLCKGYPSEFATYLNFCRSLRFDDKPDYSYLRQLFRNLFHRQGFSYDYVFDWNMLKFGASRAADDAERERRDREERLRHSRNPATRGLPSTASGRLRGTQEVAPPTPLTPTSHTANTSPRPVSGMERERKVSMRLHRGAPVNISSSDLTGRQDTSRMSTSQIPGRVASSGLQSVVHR
The experiment is described as above. Particulars: read-out: % Inhibition CK1d.

The next experiment addresses T14, CHK2 (Homo sapiens, UniProt O96017).
T14 construct: purchased Perkin Elmer (ProfilerPro assay kit 1)
The experiment is described as above. Particulars: read-out: % Inhibition CHK2.

The target of another experiment is T15, CHK1 (Homo sapiens, UniProt O14757).
T15 construct: purchased Perkin Elmer ProfilerPro assay kit 1
T15 sequence (O14757 1-476): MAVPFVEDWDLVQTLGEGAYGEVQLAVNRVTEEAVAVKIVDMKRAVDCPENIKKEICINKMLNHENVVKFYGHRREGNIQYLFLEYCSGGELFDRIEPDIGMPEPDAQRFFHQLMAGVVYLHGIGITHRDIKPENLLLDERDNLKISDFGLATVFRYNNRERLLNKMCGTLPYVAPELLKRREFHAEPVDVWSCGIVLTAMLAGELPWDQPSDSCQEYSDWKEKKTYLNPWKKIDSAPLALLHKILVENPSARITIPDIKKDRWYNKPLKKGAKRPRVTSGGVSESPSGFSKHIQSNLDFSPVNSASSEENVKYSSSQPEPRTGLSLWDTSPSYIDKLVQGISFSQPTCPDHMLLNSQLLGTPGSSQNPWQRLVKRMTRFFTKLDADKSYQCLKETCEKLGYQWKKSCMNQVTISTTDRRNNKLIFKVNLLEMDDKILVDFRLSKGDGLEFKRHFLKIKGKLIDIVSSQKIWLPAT
The experiment is described as above. Particulars: read-out: % Inhibition CHK1.

Another experiment addresses T16, ABL (Homo sapiens, UniProt P00519).
T16 construct: purchased Perkin Elmer ProfilerPro assay kit 1
The description is as above. Particulars: read-out: % Inhibition ABL.

One may read the Ki as a measure of affinity in units of concentration, obtained from inhibition or displacement. Usually inhibition stands for the drop in the measured response relative to a control, in per cent.

A value given as a limit tells only on which side of the number the result lay.
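Throughout, for AurB Ki: aurora B inhibition measured in a mobility shift assay, underlying mean IC50 taken from two independent duplicate runs at 8 compound concentrations.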
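Throughout, for AurB ligand efficiency (LE): aurora B inhibition measured in a mobility shift assay, underlying mean IC50 taken from two independent duplicate runs at 8 compound concentrations.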

T8 sequence (P07948 whole entry): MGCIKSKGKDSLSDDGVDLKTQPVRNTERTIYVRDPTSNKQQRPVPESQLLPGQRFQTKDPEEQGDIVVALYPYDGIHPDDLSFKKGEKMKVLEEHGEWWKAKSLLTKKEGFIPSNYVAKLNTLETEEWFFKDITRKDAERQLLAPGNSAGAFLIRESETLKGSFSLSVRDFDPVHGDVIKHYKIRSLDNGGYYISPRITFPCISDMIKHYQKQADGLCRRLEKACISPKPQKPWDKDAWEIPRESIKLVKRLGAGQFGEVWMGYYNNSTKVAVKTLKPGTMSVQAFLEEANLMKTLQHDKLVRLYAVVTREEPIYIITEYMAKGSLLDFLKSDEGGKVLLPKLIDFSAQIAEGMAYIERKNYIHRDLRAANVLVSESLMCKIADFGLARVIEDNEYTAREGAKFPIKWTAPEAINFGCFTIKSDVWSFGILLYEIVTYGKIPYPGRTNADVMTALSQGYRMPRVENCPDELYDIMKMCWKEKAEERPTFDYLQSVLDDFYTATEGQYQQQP
T6 sequence (P08581 25-1390): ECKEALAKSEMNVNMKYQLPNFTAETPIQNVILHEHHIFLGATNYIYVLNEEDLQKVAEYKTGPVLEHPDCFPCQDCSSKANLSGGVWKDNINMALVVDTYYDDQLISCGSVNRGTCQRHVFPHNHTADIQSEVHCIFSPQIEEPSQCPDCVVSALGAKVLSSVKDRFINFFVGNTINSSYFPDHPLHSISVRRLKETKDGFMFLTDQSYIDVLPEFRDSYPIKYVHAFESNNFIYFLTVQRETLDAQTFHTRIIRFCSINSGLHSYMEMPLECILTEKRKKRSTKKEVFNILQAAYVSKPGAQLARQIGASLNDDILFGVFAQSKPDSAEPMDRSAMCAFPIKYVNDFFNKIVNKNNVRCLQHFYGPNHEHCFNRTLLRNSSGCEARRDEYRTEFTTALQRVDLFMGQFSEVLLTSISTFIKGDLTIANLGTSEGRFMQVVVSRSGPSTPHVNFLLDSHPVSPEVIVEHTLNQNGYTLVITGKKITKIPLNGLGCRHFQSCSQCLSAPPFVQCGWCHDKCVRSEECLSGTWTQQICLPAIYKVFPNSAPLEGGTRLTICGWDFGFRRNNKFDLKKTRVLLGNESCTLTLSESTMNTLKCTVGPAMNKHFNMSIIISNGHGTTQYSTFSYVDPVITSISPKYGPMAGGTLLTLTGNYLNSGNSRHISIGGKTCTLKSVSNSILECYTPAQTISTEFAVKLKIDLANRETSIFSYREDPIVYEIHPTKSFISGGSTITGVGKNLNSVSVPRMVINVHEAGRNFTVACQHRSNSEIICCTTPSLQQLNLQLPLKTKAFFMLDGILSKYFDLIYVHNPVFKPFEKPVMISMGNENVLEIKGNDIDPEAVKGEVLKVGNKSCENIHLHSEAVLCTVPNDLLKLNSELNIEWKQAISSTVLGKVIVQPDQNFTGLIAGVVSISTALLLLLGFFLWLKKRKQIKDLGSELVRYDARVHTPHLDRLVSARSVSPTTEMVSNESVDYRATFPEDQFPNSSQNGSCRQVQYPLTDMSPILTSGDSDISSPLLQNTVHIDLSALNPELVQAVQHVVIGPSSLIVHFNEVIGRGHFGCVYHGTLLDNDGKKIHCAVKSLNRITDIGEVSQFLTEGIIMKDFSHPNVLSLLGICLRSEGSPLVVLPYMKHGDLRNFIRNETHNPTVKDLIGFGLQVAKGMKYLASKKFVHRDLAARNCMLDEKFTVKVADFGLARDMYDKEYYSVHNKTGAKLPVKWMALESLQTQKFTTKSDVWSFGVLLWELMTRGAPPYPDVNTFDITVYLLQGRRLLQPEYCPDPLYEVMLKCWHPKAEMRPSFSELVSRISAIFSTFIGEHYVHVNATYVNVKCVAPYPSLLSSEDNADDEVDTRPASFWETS
T14 sequence (O96017 whole entry): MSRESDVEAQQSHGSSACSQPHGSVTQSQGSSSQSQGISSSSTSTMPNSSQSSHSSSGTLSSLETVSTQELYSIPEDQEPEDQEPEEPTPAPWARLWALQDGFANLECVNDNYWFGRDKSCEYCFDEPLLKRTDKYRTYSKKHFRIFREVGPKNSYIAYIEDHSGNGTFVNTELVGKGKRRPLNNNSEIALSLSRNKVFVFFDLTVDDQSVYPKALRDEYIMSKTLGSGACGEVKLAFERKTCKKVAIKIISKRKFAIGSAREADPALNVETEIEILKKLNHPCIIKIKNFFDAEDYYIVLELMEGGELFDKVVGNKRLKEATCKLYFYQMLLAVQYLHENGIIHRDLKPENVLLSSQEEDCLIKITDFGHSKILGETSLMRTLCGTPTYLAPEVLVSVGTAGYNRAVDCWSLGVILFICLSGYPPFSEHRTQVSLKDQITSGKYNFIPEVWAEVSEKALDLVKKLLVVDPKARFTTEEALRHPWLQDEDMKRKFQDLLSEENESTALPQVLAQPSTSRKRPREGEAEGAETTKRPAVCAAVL
Procedure for ABL: Mobility Shift Assay Protocol
(§1) Screening of 26 kinases using a mobility shift assay
(§2) A mobility shift assay to determine kinase inhibition was carried out using a
(§3) modified version of the ProfilerPro assay kit 1 (Perkin Elmer, Coventry, UK)
(§4) including MPS1 and Aurora B. Each kit contained an enzyme plate, a substrate
(§5) plate, reconstitution buffer, 1 M DTT, protease inhibitor cocktail and termination
(§6) buffer. Test compounds were added as a solution in DMSO.
(§7) peptide phosphorylation assay was carried out as per the manufacturer’s
(§8) instructions. The electrophoretic separation and analysis of the phosphorylated
(§9) and non-phosphorylated peptides was carried out on a 4-sipper chip using a
(§10) LabChip EZReader II (Perkin Elmer). Results were expressed as % inhibition of
(§11) peptide phosphorylation relative to control wells for 0 % (no test compound) and
(§12) 100 % (no ATP) inhibition. The percentage inhibition was calculated using the
(§13) % Inhibition = [1 - (% Conversion Sample / % Conversion 0% Inhibition Control)] x 100
Procedure for AurA: Mobility Shift Assay Protocol
as §1, §2, §3, §4, §5, §6, §7, §8, §9, §10, §11, §12, §13
Procedure for Aurora A: (§14) IC50 values were obtained for an expanded version of the fragment library using the previously described mobility shift assay.[44] Subsequently, Ki values were estimated from IC50 values to allow better comparison of the activity against targets which were measured at different substrate concentrations (Supplementary data Table 1).
(§15) IC50 values for MPS1, Aurora A and Aurora B inhibition were determined as previously described,[44] and Ki values were estimated from the mean IC50 values using the Cheng-Prusoff equation.[48]
(§16) Kinase [ATP] (M) [Enzyme] (nM) [Peptide Substrate] (M) MgCl2 (mM)
(§17) For all compounds, IC50 values for MPS1, Aurora A, and Aurora B were determined
(§18) using MPS1 and Aurora A/B mobility shift assays as described previously.1 IC50
(§19) values were calculated from a four-parameter logistic fit of percentage inhibition
(§20) versus concentration (at 8 compound concentrations) using GraphPad Prism 5
(§21) (GraphPad Software, Inc., CA, USA). Mean IC50 values were determined from two
(§22) independent measurements each carried out in duplicate. Ki values were estimated
(§23) from the mean IC50 values using the Cheng-Prusoff equation.
Procedure for Aurora B: as §14, §15, §16, §17, §18, §19, §20, §21, §22, §23
Procedure for CHK1: as §2, §3, §4, §5, §6, §7, §8, §9, §10, §11, §12, §13
Procedure for CHK2: as §2, §3, §4, §5, §6, §7, §8, §9, §10, §11, §12, §13
Procedure for CK1d: as §2, §3, §4, §5, §6, §7, §8, §9, §10, §11, §12, §13
Procedure for Erk2: as §2, §3, §4, §5, §6, §7, §8, §9, §10, §11, §12, §13
Procedure for FYN: as §2, §3, §4, §5, §6, §7, §8, §9, §10, §11, §12, §13
Procedure for GSK3b: as §2, §3, §4, §5, §6, §7, §8, §9, §10, §11, §12, §13
Procedure for INSR: (§24) In order to test the biochemical activity of our fragment library, a panel of 26 structurally diverse protein kinases was used.
as §1, §2, §3, §4, §5, §6, §7, §8, §9, §10, §11, §12, §13
Procedure for LYN: as §2, §3, §4, §5, §6, §7, §8, §9, §10, §11, §12, §13
Procedure for MAPKAPK2: as §2, §3, §4, §5, §6, §7, §8, §9, §10, §11, §12, §13
Procedure for MET: as §24
Mobility Shift Assay Protocol
as §1, §2, §3, §4, §5, §6
final concentration. […] The
as §7, §8, §9, §10, §11, §12, §13
Procedure for MPS1: as §14, §15, §16, §17, §18, §19, §20, §21, §22, §23
Procedure for RSK1: Mobility Shift Assay Protocol
as §1, §2, §3, §4, §5, §6, §7, §8, §9, §10, §11, §12, §13

On to `Cc1nc(O)c(N)cc1-c1ccncc1` [Compound 15, 3-Amino-6-methyl-5-(pyridin-4-yl)pyridin-2-one], for which the Ki is above 100 µM at MPS1, above 100 µM at Aurora A and 25.7 µM on Aurora B. The “AurB ligand efficiency (LE)” value on Aurora B is 0.42. Besides, the inhibition at 100 µM came to 49% on AurA; 17% on RSK1; 0% on PKA; 14% on MET; 33% at MAPKAPK2; 10% at LYN. Further, the inhibition at 100 µM amounted to 23% on INSR; 39% on GSK3b; 6% on FYN; 11% at Erk2; 33% at CK1d; 42% at CHK2. The inhibition at 100 µM at CHK1 is 4%; at ABL, 5%.

Regarding `O=C(Nc1cc(-c2ccncc2)c[nH]c1=O)c1ccccc1` [Compound 16, N-(2-Oxo-5-(pyridin-4-yl)-1,2-dihydropyridin-3-yl)benzamide], the Ki on MPS1 was 5.4 µM; on Aurora A, 3.3 µM; at Aurora B it was 41 µM. The “MPS1 ligand efficiency (LE)” value on MPS1 is on record as 0.33. At MPS1 (from Ki values, Table 1 and Table 2), the “fold increase in inhibitory activity against MPS1 relative to compound 3” value is given as 15 fold. On Aurora A, the “AurA ligand efficiency (LE)” value is given as 0.34. On Aurora B, the “AurB ligand efficiency (LE)” value stood at 0.27. Besides, the inhibition at 30 µM is 59% at AurA; 19% at RSK1; 0% at PKA; 9% at MET; 29% at MAPKAPK2; 55% at LYN. In addition, the inhibition at 30 µM worked out at 13% on INSR; 92% at GSK3b; 59% on FYN; 5% at Erk2; 79% at CK1d; 29% on CHK2. Moreover, the inhibition at 30 µM was found to be 24% at CHK1 and 55% on ABL.

For the molecule `CN1CCN(c2ccc(C(=O)Nc3cc(-c4ccncc4)c[nH]c3=O)cc2)CC1` [Compound 22], the Ki at MPS1 was 4.8 µM; at Aurora A, 14.9 µM; at Aurora B, 5.5 µM. The “MPS1 ligand efficiency (LE)” value on MPS1 turned out to be 0.25. The “AurA ligand efficiency (LE)” value at Aurora A came to 0.23. Further, the “AurB ligand efficiency (LE)” value on Aurora B was found to be 0.25. Also, the inhibition at 30 µM at AurA was determined as 92%; at RSK1, 41%; on PKA, 0%; on MET, 24%; on MAPKAPK2, 12%; at LYN it was 93%. Besides, the inhibition at 30 µM amounted to 30% on INSR; 94% on GSK3b; 95% at FYN; 1% at Erk2; 31% at CK1d; 33% on CHK2. For the same molecule, the inhibition at 30 µM on CHK1 stood at 84%; at ABL, 96%.

With `O=C(Nc1cc(-c2ccnc(NC3CC3)n2)c[nH]c1=O)c1ccccc1` [Compound 24], the Ki was 3.2 µM on MPS1, 17.3 µM at Aurora A and 3.6 µM at Aurora B. Besides, the “MPS1 ligand efficiency (LE)” value on MPS1 is listed as 0.29. For the same molecule, the “AurA ligand efficiency (LE)” value on Aurora A is recorded as 0.25. The “AurB ligand efficiency (LE)” value at Aurora B worked out at 0.28. Besides, the inhibition at 30 µM on AurA was found to be 99%; on RSK1 it was 98%; on PKA, 75%; at MET it was 65%; on MAPKAPK2 it was 96%; on LYN, 86%. The inhibition at 30 µM at INSR amounted to 27%; at GSK3b, 99%; at FYN, 93%; at Erk2 it was 37%; at CK1d, 78%; at CHK2, 71%. The inhibition at 30 µM on CHK1 was determined as 0%; at ABL, 88%.
